Results published in the CheMixHub viscosity set.
± gives the uncertainty stated by the source.

Test: xn = mol fraction of the nth substance listed

N#CCCCCC#N + CCOC(C)=O
303.15 K, 101.33 kPa
Settings | viscosity [mPa·s]
x1 = 0.1075 | 0.5353 ± 0.0041
x1 = 0.3039 | 0.8893 ± 0.0057
x1 = 0.3934 | 1.116 ± 0.007
x1 = 0.4973 | 1.451 ± 0.0088
x1 = 0.5975 | 1.861 ± 0.011
x1 = 0.6944 | 2.366 ± 0.014
x1 = 0.85 | 3.442 ± 0.019

COCCOCCOCCOCCOC + ClC(Cl)Cl
298.15 K, 101 kPa
Settings | viscosity [mPa·s]
x1 = 0.0305 | 0.671 ± 0.006
x1 = 0.06 | 0.81 ± 0.008
x1 = 0.0813 | 0.921 ± 0.009
x1 = 0.118 | 1.124 ± 0.011
x1 = 0.1876 | 1.492 ± 0.016
x1 = 0.2354 | 1.766 ± 0.02
x1 = 0.2657 | 1.91 ± 0.023
x1 = 0.2957 | 2.04 ± 0.025
x1 = 0.35 | 2.276 ± 0.03
x1 = 0.4029 | 2.413 ± 0.034
x1 = 0.4429 | 2.521 ± 0.038
x1 = 0.5093 | 2.676 ± 0.043
x1 = 0.5445 | 2.745 ± 0.046
x1 = 0.6146 | 2.883 ± 0.052
x1 = 0.6452 | 2.925 ± 0.055
x1 = 0.7142 | 3.035 ± 0.061
x1 = 0.7593 | 3.083 ± 0.065
x1 = 0.8142 | 3.141 ± 0.069
x1 = 0.88 | 3.227 ± 0.075
x1 = 0.9225 | 3.252 ± 0.078

CCCC(C)C + CCCCCCCCCCCCCCCC
298 K, 101.33 kPa
Settings | viscosity [mPa·s]
x1 = 0.1177 | 2.572 ± 0.032
x1 = 0.2071 | 2.199 ± 0.028
x1 = 0.3082 | 1.835 ± 0.024
x1 = 0.4013 | 1.53 ± 0.02
x1 = 0.4982 | 1.241 ± 0.016
x1 = 0.6029 | 0.9821 ± 0.013
x1 = 0.7034 | 0.7606 ± 0.011
x1 = 0.8025 | 0.5679 ± 0.0083
x1 = 0.9006 | 0.3949 ± 0.0062

C[N+](C)(C)CC(=O)O.[Cl-] + O
viscosity [mPa·s], 101 kPa
Settings | 293.15 K | 298.15 K | 303.15 K | 308.15 K | 313.15 K | 318.15 K
x1 = 0.000448 | 1.007 ± 0.021 | 0.8948 ± 0.019 | 0.8017 ± 0.017 | 0.7233 ± 0.015 | 0.6568 ± 0.014 | –
x1 = 0.000896 | 1.011 ± 0.022 | 0.8992 ± 0.019 | 0.8061 ± 0.017 | 0.7276 ± 0.015 | 0.661 ± 0.014 | 0.6055 ± 0.013
x1 = 0.00135 | 1.016 ± 0.022 | 0.9038 ± 0.019 | 0.8106 ± 0.017 | 0.7321 ± 0.016 | 0.6654 ± 0.014 | –
x1 = 0.0018 | 1.02 ± 0.022 | 0.9082 ± 0.019 | 0.815 ± 0.017 | 0.7365 ± 0.016 | 0.6697 ± 0.014 | 0.614 ± 0.013
x1 = 0.002247 | 1.025 ± 0.022 | 0.9126 ± 0.019 | 0.8193 ± 0.017 | 0.7408 ± 0.016 | 0.674 ± 0.014 | 0.6184 ± 0.013
x1 = 0.002691 | 1.029 ± 0.022 | 0.917 ± 0.019 | 0.8237 ± 0.017 | 0.7452 ± 0.016 | 0.6783 ± 0.014 | 0.6227 ± 0.013
x1 = 0.003581 | 1.038 ± 0.022 | 0.9259 ± 0.02 | 0.8324 ± 0.018 | 0.7539 ± 0.016 | 0.687 ± 0.015 | 0.6313 ± 0.013
x1 = 0.004484 | 1.048 ± 0.022 | 0.9348 ± 0.02 | 0.8413 ± 0.018 | 0.7627 ± 0.016 | 0.6956 ± 0.015 | 0.6401 ± 0.014
x1 = 0.005363 | 1.056 ± 0.023 | 0.9435 ± 0.02 | 0.85 ± 0.018 | 0.7712 ± 0.016 | 0.7043 ± 0.015 | 0.6486 ± 0.014
x1 = 0.006268 | 1.066 ± 0.023 | 0.9526 ± 0.02 | 0.859 ± 0.018 | 0.7799 ± 0.017 | 0.713 ± 0.015 | 0.6575 ± 0.014
x1 = 0.007163 | 1.075 ± 0.023 | 0.9616 ± 0.021 | 0.8677 ± 0.018 | 0.789 ± 0.017 | 0.7217 ± 0.015 | 0.6664 ± 0.014

COC(C)(C)C + CCCCCO
Settings | viscosity [mPa·s]
298.15 K, 101.33 kPa, x1 = 0.0301 | 3.179 ± 0.19
298.15 K, 101.33 kPa, x1 = 0.0484 | 3.008 ± 0.18
298.15 K, 101.33 kPa, x1 = 0.1133 | 2.461 ± 0.15
298.15 K, 101.33 kPa, x1 = 0.1663 | 2.091 ± 0.13
298.15 K, 101.33 kPa, x1 = 0.2824 | 1.56 ± 0.096
298.15 K, 101.33 kPa, x1 = 0.3286 | 1.346 ± 0.084
298.15 K, 101.33 kPa, x1 = 0.3767 | 1.174 ± 0.074
298.15 K, 101.33 kPa, x1 = 0.4229 | 1.052 ± 0.067
298.15 K, 101.33 kPa, x1 = 0.4688 | 0.939 ± 0.061
298.15 K, 101.33 kPa, x1 = 0.5137 | 0.843 ± 0.055
298.15 K, 101.33 kPa, x1 = 0.5239 | 0.843 ± 0.055
298.15 K, 101.33 kPa, x1 = 0.5817 | 0.725 ± 0.049
298.15 K, 101.33 kPa, x1 = 0.6305 | 0.653 ± 0.045
298.15 K, 101.33 kPa, x1 = 0.6824 | 0.587 ± 0.041
298.15 K, 101.33 kPa, x1 = 0.7282 | 0.538 ± 0.038
298.15 K, 101.33 kPa, x1 = 0.7788 | 0.487 ± 0.035
298.15 K, 101.33 kPa, x1 = 0.8339 | 0.44 ± 0.033
298.15 K, 101.33 kPa, x1 = 0.8897 | 0.398 ± 0.03
298.15 K, 101.33 kPa, x2 = 0.0178 | 0.349 ± 0.028
303.15 K, 101 kPa, x1 = 0.0401 | 2.675 ± 0.11

CCCCCCCCCCCCCCCCCCCCCC + CCCCCCCCCC
viscosity [mPa·s], 101.3 kPa
Settings | x2 = 0.4 | x2 = 0.5 | x2 = 0.6 | x2 = 0.799
303.2 K | – | – | – | 1.47 ± 0.02
313.2 K | 2.93 ± 0.04 | 2.53 ± 0.03 | 2.05 ± 0.03 | 1.24 ± 0.02
